{
  "source": "patent US20260373136A1",
  "about": "“A NOVEL DOSAGE REGIMEN USING LOW DOSES OF DONEPEZIL OR DERIVATIVE THEREOF FOR PREVENTING OR TREATING A COMPULSIVE DISORDER” (SORBONNE UNIVERSITE, priority 2022, published 2026)",
  "key": {"[1]": {"experiment": "Body weight / BMI of anorexic patients treated with donepezil", "assay_type": "in vivo, human", "method": "The term “Body Mass Index” (BMI) is calculated by dividing the body mass of an individual (in kg) by his height (in […]). The BMI is generally used to evaluate if an individual suffers from under nutrition or on the contrary if he/she suffers from overweight or obesity.\n(§1) 6 anorexic patients were treated with donepezil: 5 of them with a daily dose according to the present invention and 1 with a higher dose (comparative).\n(§2) The studies were led in hospital. Each case is presented below.\nPatient #2 is a person who developed anorexia nervosa restricting type in adolescence. They were very restricted in the types of food they ate and could not eat food that was processed or high in sugar or fats. They exercised 3-4 hours a day. They were unable to reduce their exercising even minimally […] becoming flooded with debilitating anxiety. They were unable to eat enough to maintain a healthy weight. Their BMI was 18.5 kg/m^2 and was medically stable when they started donepezil.\n(§3) The treatment started with a daily dose of donepezil of 0.5 mg for 10 days then the daily dose was increased to 1 mg for 7 days then increased to 1.5 mg for 71 days (2 months and 10 days) then increased to 2 mg for 22 days and then increased to 2.5 mg and remains on this dose for 4 months and 18 days.\n(§4) The treatment started with a daily dose of donepezil of 0.5 mg for 13 days then the daily dose was increased to 0.75 mg for 9 days then increased to 1 mg for 17 days and then increased to 1.5 mg and remained at this dosage for a month then stopped for two months and then restarted with a daily dose of 1.5 mg that remains within 1 month and then discontinued.\nA patient who has suffered from anorexia nervosa during their second pregnancy. They have been vigilant about their caloric intake and body image since their adolescence. […] The symptomatology is dominated by qualitative and quantitative food restriction and physical hyperactivity. […] Neurocognitive executive functions are preserved, there is a high tolerance of delayed reward measured by Delay Discounting Task. […]"}, "[2]": {"experiment": "Yale-Brown Obsessive Compulsive Scale questionnaire (Y-BOCS) before and after treatment", "assay_type": "in vivo, human", "conditions": "for OCD symptoms: Y-BOCS post vs pre-treatment; for Y-BOCS score, post treatment: 0-7 subclinical, 8-15 mild, 16-23 moderate, 24-31 severe, 32-40 extreme symptoms", "method": "as §1, §2, §3\nPatient #2 obsessive-compulsive disorders (OCD) symptoms have also been evaluated with the Yale-Brown Obsessive Compulsive Scale questionnaire (Y-BOCS) (available on https://pcl.psychiatry.uw.edu/wp-content/uploads/2021/12/YBOCS.pdf) before and after the treatment. The following scores have been obtained:\nThe score obtained with questionnaire Y-BOCS is classified as follows: • 0-7: subclinical; 8-15: mild symptoms; 16-23: moderate symptoms; 24-31: severe symptoms; 32-40: extreme symptoms\nas §4\nPatient #4 obsessive-compulsive disorders (OCD) symptoms have also been evaluated with questionnaire Y-BOCS-before and after the treatment. The following scores have been obtained:\n(§5) The treatment started with a daily dose of donepezil of 0.5 mg for 8 days and then the daily dose was increased to 1 mg for 9 days and then increased to 1.67 mg for 62 days and then increased to 2.5 mg.\nPatient #6 obsessive-compulsive disorders (OCD) symptoms have also been evaluated with questionnaire Y-BOCS-before and after the treatment."}, "AChE": {"system": "AChE", "conditions": "background statement; cited from earlier work"}, "[3]": {"experiment": "Generalized Anxiety Disorders Assessment (GAD-7) questionnaire before and after treatment", "assay_type": "in vivo, human", "conditions": "for anxiety: GAD-7 post vs pre-treatment; for General anxiety disorder (GAD-7) score, post treatment: 5-9 mild, 10-14 moderate, 15-21 severe anxiety", "method": "as §1, §2, §3\nPatient #2 anxiety has also been evaluated with Generalized Anxiety Disorders Assessment (GAD-7) questionnaire (available on https://adaa.org/sites/default/files/GAD-7_Anxiety-updated_O.pdf) before and after the treatment. The following scores have been obtained:\nThe score obtained with questionary GAD-7 is classified as follows: • 5-9: mild anxiety; 10-14: moderate anxiety; 15-21: severe anxiety\nas §4\nPatient #4 anxiety has also been evaluated with questionnaire GAD-7 before and after the treatment. The following scores have been obtained:\nas §5\nPatient #6 anxiety has also been evaluated with questionnaire GAD-7 before and after the treatment. The following scores have been obtained:\nThe score obtained with questionnaire GAD-7 is classified as follows: • 5-9: mild anxiety; 10-14: moderate anxiety; 15-21: severe anxiety"}, "[4]": {"conditions": "Patient #2, daily dose 0.5-2.5 mg"}, "[5]": {"conditions": "Patient #4, daily dose 0.5 to 1.5 mg"}, "[6]": {"conditions": "Patient #6, daily dose 0.5 mg to 2.5 mg"}},
  "data": [
    {"smiles": "COc1cc2c(cc1OC)C(=O)C(CC1CCN(Cc3ccccc3)CC1)C2", "note": "(stereo not shown) [donepezil]", "values": [
      {"measurement": "BMI", "setting": "[1]; Patient #2, daily dose 0.5-2.5 mg, over the next 5 months, BMI 18.5 kg/m^2 at start, maintained", "result": "over 20 kg/m^2"},
      {"measurement": "BMI", "setting": "[1]; Patient #4, daily dose 1.5 mg, within a month, BMI plateaued after rise to 15 kg/m^2 before treatment", "result": 15.6, "unit": "kg/m^2"},
      {"measurement": "body weight", "setting": "[1]; Patient #5, 2.5 mg per day for 2 months, from 27 kg, in 3 months", "result": 36, "unit": "kg"},
      {"measurement": "OCD symptoms", "setting": "[2]; [4]", "result": "diminution of OCD symptoms"},
      {"measurement": "Y-BOCS score, post treatment", "setting": "[2]; Patient #2, daily dose 0.5-2.5 mg, pre-treatment score 32", "result": 22},
      {"measurement": "OCD symptoms", "setting": "[2]; [5]", "result": "diminution of OCD symptoms"},
      {"measurement": "Y-BOCS score, post treatment", "setting": "[2]; Patient #4, daily dose 0.5 to 1.5 mg, pre-treatment score 28", "result": 16},
      {"measurement": "OCD symptoms", "setting": "[2]; [6]", "result": "diminution of OCD symptoms"},
      {"measurement": "Y-BOCS score, post treatment", "setting": "[2]; Patient #6, daily dose 0.5 mg to 2.5 mg, pre-treatment score 28", "result": 17},
      {"measurement": "inhibition of AChE", "setting": "AChE", "result": "reversible and selective inhibitor of AChE"},
      {"measurement": "anxiety", "setting": "[3]; [4]", "result": "diminution of their anxiety"},
      {"measurement": "General anxiety disorder (GAD-7) score, post treatment", "setting": "[3]; Patient #2, daily dose 0.5-2.5 mg, pre-treatment score 16", "result": 12},
      {"measurement": "anxiety", "setting": "[3]; [5]", "result": "diminution of their anxiety"},
      {"measurement": "General anxiety disorder (GAD-7) score, post treatment", "setting": "[3]; Patient #4, daily dose 0.5 to 1.5 mg, pre-treatment score 16", "result": 9},
      {"measurement": "anxiety", "setting": "[3]; [6]", "result": "strong diminution of their anxiety"},
      {"measurement": "General anxiety disorder (GAD-7) score, post treatment", "setting": "[3]; Patient #6, daily dose 0.5 mg to 2.5 mg, pre-treatment score 15", "result": 3}
    ]}
  ]
}
